# In PubChem BioAssay AID624361 (Broad Institute, 2012):
# Records with an inconclusive call do not appear.
# Tested on: LMP1-induced NF-kappaB luciferase reporter cells, luminescence
# Experiment: inhibitors of LMP1-driven NF-kB reporter, dose response, cell-based, EBV LMP1, luciferase, dry powder, set 2 (AID 624361)
row,Compound,AC35 [µM]
1,COc1cccc(S(=O)(=O)N(C)C[C@H]2Oc3cc(C4=CCCCC4)ccc3S(=O)(=O)N([C@H](C)CO)C[C@H]2C)c1,33
2,Cc1noc(C)c1S(=O)(=O)Nc1ccc2c(c1)C(=O)N([C@@H](C)CO)C[C@H](C)[C@H](CN(C)Cc1ccc(C(F)(F)F)cc1)OCCCC[C@@H](C)O2,28.9
3,O=C(C[C@H]1C[C@H]2c3cc(NS(=O)(=O)c4ccc(F)cc4)ccc3O[C@H]2[C@H](CO)O1)NCc1ccc(Oc2ccccc2)cc1,10.3
4,C[C@@H]1CN([C@@H](C)CO)S(=O)(=O)c2ccc(C#C[C@@H](C)O)cc2O[C@H]1CN(C)Cc1ccc(-c2ccccc2)cc1,21.5
5,CC(C)(C)[S@@](=O)N1Cc2cc(C(=O)NCc3ccccc3F)nc(-c3cccc(-c4cccnc4)c3)c2[C@H]1CCO,29.5
6,O=C(Nc1ccc(C(F)(F)F)cc1)Nc1ccc2c(c1)[C@@H]1C[C@H](CC(=O)N3CCc4ccccc4C3)O[C@H](CO)[C@@H]1O2,8.02
7,C[C@H](CO)N1C[C@H](C)[C@@H](CN(C)S(=O)(=O)c2cccc(F)c2)Oc2ncc(C#CC3CCCCC3)cc2C1=O,35.3
8,O=C(Nc1ccc(C(F)(F)F)cc1)Nc1ccc2c(c1)[C@H]1C[C@H](CC(=O)N3CCc4ccccc4C3)O[C@H](CO)[C@H]1O2,24.9
9,COc1cccc(S(=O)(=O)N(C)C[C@@H]2Oc3cc(C4=CCCCC4)ccc3S(=O)(=O)N([C@@H](C)CO)C[C@@H]2C)c1,24
10,O=C(C[C@@H]1CC[C@@H]2[C@H](COC[C@H](O)CN2Cc2ccc3c(c2)OCO3)O1)Nc1ccc(-c2ccccc2)cc1,7.79
11,Cc1ccc(S(=O)(=O)N(C)C[C@H]2Oc3cc(C#Cc4ccncc4)ccc3S(=O)(=O)N([C@@H](C)CO)C[C@H]2C)cc1,11.5
12,C[C@H]1CN([C@@H](C)CO)C(=O)c2cc(C#Cc3ccccc3F)cnc2O[C@@H]1CN(C)C(=O)C1CCCCC1,24.6
13,Cc1noc(C)c1S(=O)(=O)Nc1ccc2c(c1)C(=O)N([C@@H](C)CO)C[C@@H](C)[C@H](CN(C)Cc1ccc(C(F)(F)F)cc1)OCCCC[C@@H](C)O2,31.7
14,N#C[C@H]1[C@H](c2ccc(C#Cc3ccccc3F)cc2)[C@@H](CO)N1C(=O)c1cccnc1,22.8
15,COc1cccc(S(=O)(=O)N(C)C[C@H]2Oc3cc(C4=CCCCC4)ccc3S(=O)(=O)N([C@@H](C)CO)C[C@@H]2C)c1,20.2
16,COc1cccc(S(=O)(=O)N(C)C[C@@H]2Oc3cc(C4=CCCCC4)ccc3S(=O)(=O)N([C@H](C)CO)C[C@H]2C)c1,23.4
17,C[C@@H]1CN([C@@H](C)CO)S(=O)(=O)c2ccc(C#Cc3ccncc3)cc2O[C@H]1CN(C)C(=O)Nc1ccc2c(c1)OCO2,24
18,CC(C)(C)[S@](=O)N1Cc2cc(C(=O)NCC(F)(F)F)nc(-c3cccc(-c4cccc(F)c4)c3)c2[C@@H]1CCO,8.29
19,COc1ccccc1C#Cc1ccc2c(c1)O[C@H](CN(C)Cc1cccnc1)[C@H](C)CN([C@H](C)CO)S2(=O)=O,20.3
20,O=C(C[C@H]1C[C@H]2c3cc(NC(=O)c4ccc5c(c4)OCO5)ccc3O[C@H]2[C@H](CO)O1)NCc1ccc(Oc2ccccc2)cc1,20.7
21,COc1ccc(S(=O)(=O)N(C)C[C@H]2Oc3ncc(/C=C/c4ccccc4)cc3C(=O)N([C@H](C)CO)C[C@@H]2C)cc1,20.5
22,COc1ccccc1C#Cc1cnc2c(c1)C(=O)N([C@@H](C)CO)C[C@H](C)[C@@H](CN(C)C(=O)c1ccc3c(c1)OCO3)O2,31.2
23,O=C(C[C@@H]1CC[C@@H]2[C@H](COC[C@@H](O)CN2Cc2ccc3c(c2)OCO3)O1)Nc1ccc(-c2ccccc2)cc1,10

row,Compound,AC35 [µM]
1,O=C(C[C@@H]1C[C@H]2c3cc(NC(=O)c4ccc5c(c4)OCO5)ccc3O[C@H]2[C@H](CO)O1)NC1CCCCC1,24
2,Cc1noc(C)c1S(=O)(=O)Nc1ccc2c(c1)C(=O)N([C@@H](C)CO)C[C@H](C)[C@@H](CN(C)Cc1ccc(C(F)(F)F)cc1)OCCCC[C@@H](C)O2,21.5
3,Cc1noc(C)c1S(=O)(=O)Nc1ccc2c(c1)C(=O)N([C@@H](C)CO)C[C@H](C)[C@@H](CN(C)Cc1ccc(C(F)(F)F)cc1)OCCCC[C@H](C)O2,30.3
4,Cc1noc(C)c1S(=O)(=O)Nc1ccc2c(c1)C(=O)N([C@H](C)CO)C[C@@H](C)[C@@H](CN(C)Cc1ccc(C(F)(F)F)cc1)OCCCC[C@H](C)O2,26.4
5,COc1ccc(S(=O)(=O)N(C)C[C@@H]2Oc3ncc(/C=C/c4ccccc4)cc3C(=O)N([C@@H](C)CO)C[C@H]2C)cc1,28.6
6,CN1C(=O)c2cc(NC(=O)Cc3cccs3)ccc2OC[C@@H]2O[C@H](CC(=O)NCc3ccc(-c4ccccc4)cc3)CC[C@H]21,29.4
7,C[C@H]1CN([C@@H](C)CO)S(=O)(=O)c2ccc(C#Cc3ccncc3)cc2O[C@H]1CN(C)C(=O)Nc1ccc2c(c1)OCO2,14.8
8,COc1ccccc1C#Cc1ccc([C@H]2[C@H](C#N)N(C(=O)C3CC3)[C@H]2CO)cc1,20
9,C[C@@H]1CN([C@H](C)CO)S(=O)(=O)c2ccc(/C=C/c3ccccc3)cc2O[C@H]1CN(C)C(=O)NC1CCCCC1,19.3
10,O=C(C[C@H]1C[C@@H]2c3cc(NS(=O)(=O)c4ccc(F)cc4)ccc3O[C@@H]2[C@@H](CO)O1)NCc1ccc(Oc2ccccc2)cc1,12.3
11,C[C@@H]1CN([C@H](C)CO)C(=O)Cc2cc(NC(=O)Cc3ccccc3)ccc2O[C@@H]1CN(C)Cc1ccc(C(F)(F)F)cc1,31.5
12,Cc1noc(C)c1S(=O)(=O)Nc1ccc2c(c1)C(=O)N([C@H](C)CO)C[C@@H](C)[C@H](CN(C)Cc1ccc(C(F)(F)F)cc1)OCCCC[C@H](C)O2,31.2
13,CN(C)C(=O)c1cccc(-c2cccc(-c3nc(C(=O)NCc4ccccc4)cc4c3[C@@H](CCO)N([S@](=O)C(C)(C)C)C4)c2)c1,16.5
14,Cc1noc(C)c1S(=O)(=O)Nc1ccc2c(c1)C(=O)N([C@@H](C)CO)C[C@@H](C)[C@@H](CN(C)Cc1ccc(C(F)(F)F)cc1)OCCCC[C@H](C)O2,32.8
15,O=C(C[C@H]1CC[C@H]2[C@@H](COC[C@@H](O)CN2Cc2ccc3c(c2)OCO3)O1)Nc1ccc(-c2ccccc2)cc1,16.1
16,COc1cccc(S(=O)(=O)N(C)C[C@@H]2Oc3cc(C4=CCCCC4)ccc3S(=O)(=O)N([C@@H](C)CO)C[C@H]2C)c1,20.9
17,CC(C)NC(=O)N1Cc2cc(C(=O)NC3Cc4ccccc4C3)nc(-c3cccc(-c4cccnc4)c3)c2[C@@H]1CCO,23.7
18,N#C[C@@H]1[C@H](c2ccc(C#Cc3ccccc3F)cc2)[C@@H](CO)N1C(=O)c1cccnc1,0.9
19,CN(C)c1ccc2c(c1)[C@@H]1C[C@H](CC(=O)NCc3ccc(Oc4ccccc4)cc3)O[C@@H](CO)[C@@H]1O2,11.4
20,COc1ccccc1C#Cc1ccc2c(c1)O[C@H](CN(C)Cc1cccnc1)[C@H](C)CN([C@@H](C)CO)S2(=O)=O,18.3
21,N#C[C@H]1[C@@H](c2ccc(-c3cccnc3)cc2)[C@@H](CO)N1C(=O)Nc1ccc(F)cc1,34.3
22,CC(C)c1ccc(NC(=O)C[C@H]2CC[C@H]3[C@@H](COc4ccc(NC(=O)Nc5ccc(F)c(F)c5)cc4C(=O)N3C)O2)cc1,18.1
23,N#C[C@H]1[C@H](c2ccc(C#Cc3ccccc3F)cc2)[C@H](CO)N1C(=O)c1cccnc1,20.8

row,Compound,AC35 [µM]
1,Cc1noc(C)c1S(=O)(=O)Nc1ccc2c(c1)C(=O)N([C@H](C)CO)C[C@H](C)[C@H](CN(C)Cc1ccc(C(F)(F)F)cc1)OCCCC[C@H](C)O2,27.8
2,COc1ccc(-c2cccc(-c3nc(C(=O)NCC(F)(F)F)cc4c3[C@H](CCO)N([S@@](=O)C(C)(C)C)C4)c2)cc1,21.5
3,Cc1ccc(S(=O)(=O)N(C)C[C@H]2Oc3cc(C#Cc4ccncc4)ccc3S(=O)(=O)N([C@@H](C)CO)C[C@@H]2C)cc1,10.2
4,O=C(C[C@@H]1C[C@H]2c3cc(NS(=O)(=O)c4ccc(F)cc4)ccc3O[C@H]2[C@@H](CO)O1)NCc1ccc(Oc2ccccc2)cc1,14.7
5,O=C(C[C@@H]1C[C@@H]2c3cc(NS(=O)(=O)c4ccc(F)cc4)ccc3O[C@@H]2[C@@H](CO)O1)NCc1ccc(Oc2ccccc2)cc1,12.3
6,CC(C)(C)[S@@](=O)N1Cc2cc(C(=O)NCc3ccccc3F)nc(-c3cccc(-c4ccncc4)c3)c2[C@H]1CCO,35.5
7,Cc1noc(C)c1S(=O)(=O)Nc1ccc2c(c1)C(=O)N([C@H](C)CO)C[C@H](C)[C@H](CN(C)Cc1ccc(C(F)(F)F)cc1)OCCCC[C@@H](C)O2,33.8
8,Cc1noc(C)c1S(=O)(=O)Nc1ccc2c(c1)C(=O)N([C@@H](C)CO)C[C@@H](C)[C@H](CN(C)Cc1ccc(C(F)(F)F)cc1)OCCCC[C@H](C)O2,25.6
9,O=C(Nc1ccc(C(F)(F)F)cc1)Nc1ccc2c(c1)[C@@H]1C[C@H](CC(=O)N3CCc4ccccc4C3)O[C@@H](CO)[C@@H]1O2,9.85
10,O=C(C[C@@H]1CC[C@H]2[C@@H](COC[C@H](O)CN2Cc2ccc(Oc3ccccc3)cc2)O1)N1CCc2ccccc2C1,25.7
11,Cc1noc(C)c1S(=O)(=O)Nc1ccc2c(c1)C(=O)N([C@H](C)CO)C[C@H](C)[C@@H](CN(C)Cc1ccc(C(F)(F)F)cc1)OCCCC[C@H](C)O2,22.1
12,CCCNC(=O)c1cc2c(c(-c3cccc(-c4cccc(F)c4)c3)n1)[C@H](CCO)N([S@@](=O)C(C)(C)C)C2,30.6
13,O=C(C[C@H]1C[C@@H]2c3cc(NC(=O)c4ccc5c(c4)OCO5)ccc3O[C@@H]2[C@@H](CO)O1)NCc1ccc(Oc2ccccc2)cc1,26.6
14,C[C@@H]1CN([C@@H](C)CO)C(=O)Cc2cc(NC(=O)Cc3ccccc3)ccc2O[C@H]1CN(C)Cc1ccc(C(F)(F)F)cc1,30
15,CC(C)NC(=O)N1Cc2cc(C(=O)NC3Cc4ccccc4C3)nc(-c3cccc(-c4cccnc4)c3)c2[C@H]1CCO,28.2
16,CN1C(=O)c2cc(NC(=O)c3ccc(C(F)(F)F)cc3)ccc2OC[C@@H]2O[C@@H](CC(=O)NC3Cc4ccccc4C3)CC[C@H]21,11.6
17,COc1cccc(C#Cc2ccc([C@@H]3[C@@H](C#N)N(C(=O)c4ccccn4)[C@@H]3CO)cc2)c1,18
18,Cc1cc(C(=O)Nc2ccc3c(c2)C(=O)N(C)[C@@H]2CC[C@@H](CC(=O)NCc4ccc(-c5ccccc5)cc4)O[C@H]2CO3)no1,4.76
19,COc1cccc(C#Cc2ccc([C@@H]3[C@H](C#N)N(C(=O)c4ccccn4)[C@H]3CO)cc2)c1,26.1
20,COc1ccc(NC(=O)N(C)C[C@@H]2Oc3cc(C#CCC(C)C)ccc3S(=O)(=O)N([C@@H](C)CO)C[C@@H]2C)cc1,28.3
21,Cc1noc(C)c1S(=O)(=O)Nc1ccc2c(c1)C(=O)N([C@@H](C)CO)C[C@H](C)[C@H](CN(C)Cc1ccc(C(F)(F)F)cc1)OCCCC[C@H](C)O2,33.4
